Data on two compounds can be found in patent US7582651B2, “Pyrrolopyridine derivative and use thereof” (Takeda Pharmaceutical Company Limited, priority 2002, dated 2009).

Assay [1] has as its system vanilloid receptor-1 (VR1) expressed in CHO-K1 cells (RVR1/CHO and HVR1/CHO strains). Nature of the assay: Evaluation of compounds based on cell death (survival rate of VR1-expressing CHO strains). Details: species or system rat, human. The following applies: 1 μM test compound, 3 hours reaction, Alama Blue, cultured 20 hours; strain (RVR1/CHO or HVR1/CHO) not stated. The procedure:
CHO-K1 cells (ATCC No.: CCL-61) were grown in a 150 cm^2 of a cell culture flask (Corning Coaster) using a Ham's F12 medium (GIBCO BRL) containing 10% fetal bovine serum (GIBCO BRL) and were collected from the flask by using 0.5 g/L trypsin-0.2 g/L EDTA (GIBCO BRL). The cells were washed with PBS (GIBCO BRL), centrifuged (1000 rpm, 5 minutes) and suspended in PBS. Then, the DNA was introduced into the cells using Gene Pulser (Bio-Rad Laboratories Inc.) under the following conditions. Namely, 1×10^7 cells and 15 μg of plasmid pRVR1 for expression of rat VR1 were added into a cuvette having a 0.4 cm of gap, and electroporation was carried out at an electric voltage of 0.25 kV and a capacitance of 960 μF. Subsequently, the cells were transferred into the Ham's F12 medium containing 10% fetal bovine serum, and incubated for 24 hours. The cells were then collected, centrifuged and suspended in Ham's F12 medium containing 10% fetal bovine serum and Geneticin (GIBCO BRL) at a concentration of 500 μg/ml. […]
Subsequently, the resulting Geneticin-resistant strains were cultured in the 96-well plates (Corning Coaster). […] Subsequently, the radioactivity was measured with TopCount (Packard Industry Company, Inc.) to select RVR1/CHO strains of which calcium concentration in the cells is increased when capsaicin is added thereto. […]

Assay [2] deals with ICR male mice. Briefly: Mouse eye dropping test (stimulating and desensitizing activity, capsaicin challenge). Format: in vivo. The following applies: 0.01 ml dropped to the eye; capsaicin (0.3 μg) 1 hour after initial treatment; desensitizing activity. The procedure:
Eight of 4 to 5 weeks old ICR male mice (Japan SLC Inc.) were used in a group in this test. 0.01 ml of the drug was added dropwise to the eye, and the time when the mouse continued to close the eye was measured. The stimulation of the drug was evaluated as positive when the time is more than 10 seconds, and as negative when the time is 10 seconds or less. At 1 hour after the initial treatment, a solution of capsaicin (0.3 μg) was added dropwise to the eye to evaluate whether the stimulation is or not, and examined the desensitizing activity of the compound. The stimulating and desensitizing activity of the drug were calculated as a value of ED50. The drug was dissolved in a mixture of 10% ethanol, 20% Tween 80 and 70% physiological saline solution.

A further assay concerns SD male rats. Briefly: Measurement of bladder volume (saline infusion under urethane anesthesia). Format: in vivo, rat. The following applies: sc, 12 hours after administration. As for the experimental part: Measurement of Mouse Bladder Volume
Six or seven of 7 weeks old SD male rats were used in a group in this test. At 12 hours after the subcutaneous administration of the drug, the abdomen of rat was cut open under urethane anesthesia (1.2 g/kg, ip) to expose the bladder. Physiological saline solution was infused into the bladder at the rate of 0.1 ml/minutes to check excretion reflection. All of the urine was drained off, and the physiological saline solution was infused again, and then, the bladder volume of mouse was calculated by measuring the time to urination.

The test system of assay [3] is ICR male mice. Nature of the assay: Tail-flick test (55° C. water bath). Format: in vivo, mouse. As to conditions: po. As for the experimental part:
Eight of 5 weeks old ICR male mice were used in a group in this test. The tail of the mouse was dipped by about 2 cm from the end into water in a water bath warmed to 55° C., and the latency to lift the tail up was measured. The latency was previously measured before the administration of the drug, and the mouse having the latency of 2 seconds or less was selected and used in the test. The drug was administered orally, and the latency was measured after 3, 6 and 24 hours. Cut-off time was set to 5 seconds. The drug was suspended in 0.5% methylcellulose, and the dose was 20 ml/kg BW.
In general terms: Hot-plate and tail-flick tests time the reaction to a heat stimulus.

SMILES strings stand for the structures.

As to `Cc1cc(C)c2c(C#N)c(/C=C/C(=O)N[C@@H]3CCOC(C)(C)C3)n([C@H]3CCCc4ccccc43)c2n1` [Example 74, (2E)-3-{3-cyano-4,6-dimethyl-1-[(1S)-1,2,3,4-tetrahydronaphthalen-1-yl]-1H-pyrrolo[2,3-b]pyridin-2-yl}-N-[(4R)-2,2-dimethyltetrahydro-2H-pyran-4-yl]prop-2-enamide], the “survival rate of the cells” value in assay [1] came to 2%. The ED50 in the assay on ICR male mice [2] came to 0.55 µg.

On to `Cc1cc(C)c2c(C#N)c(/C=C/C(=O)NC3CCOC(C)(C)C3)n(C3CCc4ccccc43)c2n1` (stereo not drawn) [Example 51, (2E)-3-[3-cyano-1-(indan-1-yl)-4,6-dimethyl-1H-pyrrolo[2,3-b]pyridin-2-yl]-N-(2,2-dimethyltetrahydro-2H-pyran-4-yl)acrylamide], for which the Bladder capacity in the assay on SD male rats (3 mg/kg) came to 1.76 ± 0.37 mL; with SD male rats (10 mg/kg) it was 1.57 ± 0.23 mL. For the same compound, the Latency with ICR male mice [3] (10 mg/kg, 3 h after administration) was determined as 0.85 ± 0.10 s; with ICR male mice [3] (10 mg/kg, 6 h after administration), 0.64 ± 0.04 s; with ICR male mice [3] (10 mg/kg, 24 h after administration) it was 0.78 ± 0.04 s; in the assay on ICR male mice [3] (10 mg/kg, Pre (before administration)) it was 0.55 ± 0.02 s; in the assay with ICR male mice [3] (30 mg/kg, 3 h after administration), 2.31 ± 1.13 s; in the assay on ICR male mice [3] (30 mg/kg, 6 h after administration) it was 2.04 ± 1.15 s. The Latency in the assay on ICR male mice [3] (30 mg/kg, 24 h after administration) worked out at 3.36 ± 1.02 s; in the assay on ICR male mice [3] (30 mg/kg, Pre (before administration)), 0.70 ± 0.07 s.
